Measurements published in patent publication US20230331918A1, “AMMONIUM AND SULFONIUM SULFONATE ZWITTERIONS AND POLYMERS DERIVED THEREFROM” (University of Massachusetts, priority 2022, published 2023).
Values after ≈ are worked out from the molar mass of the structure shown.

Assay: Solubility of monomers and polymers in water, methanol, chloroform
Format: physicochemical
Description: Monomer solubility (e.g., in water, methanol, or chloroform) varied with the selection of R-groups on the ammonium cation.

solubility (methanol, organic solvent or mixture, monomer, room temperature, read-out: Monomer solubility in MeOH (clear solution)) [mg/mL] | SMILES | Monomer solubility in MeOH (similar concentration (˜500 mg mL-1))
 | C=Cc1ccc(CC(CC[N+](CCCC)(CCCC)CCCC)S(=O)(=O)[O-])cc1 (centres unmarked) [tri-n-butyl derivative, 4-(Tributylammonio)-1-(4-vinylphenyl)butane-2-sulfonate] | required slightly elevated temperatures to attain solubility in MeOH
~500 (≈ 1310 mM) | C=Cc1ccc(CC(CC[N+](CCC)(CCC)CCC)S(=O)(=O)[O-])cc1 (centres unmarked) [tri-n-propyl derivative, 4-(Tripropylammonio)-1-(4-vinylphenyl)butane-2-sulfonate] | 
